Source: ChEMBL document CHEMBL4052811, “Design, synthesis and antiproliferative activity of novel substituted 2-amino-7,8-dihydropteridin-6(5H)-one derivatives” (Bioorg Med Chem Lett, 2017)

Experiments:
[1] = test system: MDA-MB-468; experiment: Cytotoxicity against human MDA-MB-468 cells after 48 hrs by MTT assay; format: functional, cell-based; conditions: MDA-MB-468, 48 h
[2] = test system: MDA-MB-231; experiment: Cytotoxicity against human MDA-MB-231 cells after 48 hrs by MTT assay; format: functional, cell-based; conditions: MDA-MB-231, 48 h
[3] = test system: BT-549; experiment: Cytotoxicity against human BT549 cells after 48 hrs by MTT assay; format: functional, cell-based; conditions: BT-549, 48 h
[4] = test system: T47D; experiment: Cytotoxicity against human T47D cells after 48 hrs by MTT assay; format: functional, cell-based
[5] = test system: T47D; experiment: Cell cycle arrest in human T47D cells assessed as accumulation at G0/G1 phase at 3 uM after 12 to 48 hrs by FACS analysis (reference value: 59.67%); format: functional
[6] = test system: T47D; experiment: Cell cycle arrest in human T47D cells assessed as accumulation at G2/M phase at 6 uM after 12 to 48 hrs by FACS analysis (reference value: 18.51%); format: functional
[7] = test system: T47D; experiment: Cell cycle arrest in human T47D cells assessed as accumulation at G2/M phase at 3 uM after 12 to 48 hrs by FACS analysis (reference value: 18.51%); format: functional
[8] = test system: T47D; experiment: Cell cycle arrest in human T47D cells assessed as accumulation at S phase at 6 uM after 12 to 48 hrs by FACS analysis (reference value: 21.82%); format: functional
[9] = test system: T47D; experiment: Cell cycle arrest in human T47D cells assessed as accumulation at G1 phase after 12 to 48 hrs by FACS analysis; format: functional, cell-based
[10] = test system: T47D; experiment: Potency index, ratio of fluorouracil IC50 to compound IC50 for human T47D cells; format: functional
[11] = test system: T47D; experiment: Cell cycle arrest in human T47D cells assessed as accumulation at G2/M phase at 12 uM after 12 to 48 hrs by FACS analysis (reference value: 18.51%); format: functional
[12] = test system: T47D; experiment: Cell cycle arrest in human T47D cells assessed as accumulation at G0/G1 phase at 6 uM after 12 to 48 hrs by FACS analysis (reference value: 59.67%); format: functional
[13] = test system: T47D; experiment: Cell cycle arrest in human T47D cells assessed as accumulation at G0/G1 phase at 12 uM after 12 to 48 hrs by FACS analysis (reference value: 59.67%); format: functional
[14] = test system: MDA-MB-468; experiment: Potency index, ratio of fluorouracil IC50 to compound IC50 for human MDA-MB-468 cells; format: functional
[15] = test system: T47D; experiment: Cell cycle arrest in human T47D cells assessed as accumulation at S phase at 12 uM after 12 to 48 hrs by FACS analysis (reference value: 21.82%); format: functional
[16] = test system: T47D; experiment: Cell cycle arrest in human T47D cells assessed as accumulation at S phase at 3 uM after 12 to 48 hrs by FACS analysis (reference value: 21.82%); format: functional
[17] = test system: BT-549; experiment: Potency index, ratio of fluorouracil IC50 to compound IC50 for human BT549 cells; format: functional

SMILES | IC50 [1] [µM] | IC50 [2] [µM] | IC50 [3] [µM] | IC50 [4] [µM] | further results
CCOC(=O)CN(Cc1ccccc1)c1nc(NCCc2ccccc2)ncc1[N+](=O)[O-] | 6.26 | 24.2 | 13.7 | 6.59 | –
COc1ccc(Nc2ncc3c(n2)NCC(=O)N3)cc1 | > 100 | > 100 | 95 | 89.2 | –
COc1cccc(CNc2ncc3c(n2)N(Cc2ccccc2)CC(=O)N3)c1 | 23.2 | 47 | 15.6 | 15.3 | –
CCOC(=O)CNc1ncc2c(n1)N(Cc1ccccc1)CC(=O)N2 | > 100 | > 100 | > 100 | > 100 | –
CN1CC(=O)Nc2cnc(Nc3ccccc3)nc21 | > 100 | > 100 | > 100 | > 100 | –
O=C1CN(Cc2ccccc2)c2nc(Nc3ccccc3)ncc2N1 | 20.6 | 37 | 11.9 | 15.2 | –
O=C1CNc2nc(Nc3ccc(F)cc3)ncc2N1 | > 100 | > 100 | 92.4 | > 100 | –
COc1cccc(Nc2ncc3c(n2)N(C)CC(=O)N3)c1 | > 100 | > 100 | > 100 | > 100 | –
CN1CCN(Nc2ncc3c(n2)N(Cc2ccccc2)CC(=O)N3)CC1 | > 100 | 98.3 | 98.3 | 79 | –
O=C1CNc2nc(Nc3ccccc3)ncc2N1 | > 100 | > 100 | > 100 | 85.4 | –
CN1CC(=O)Nc2cnc(NCCc3ccccc3)nc21 | 56.2 | 34.2 | 41.2 | 23.2 | –
CN1CC(=O)Nc2cnc(NCc3ccccc3)nc21 | 94.4 | 92 | 78.8 | 89.7 | –
COc1cccc(Nc2ncc3c(n2)NCC(=O)N3)c1 | > 100 | 93.2 | > 100 | > 100 | –
O=C1CNc2nc(Nc3ccc(Cl)cc3)ncc2N1 | 15 | 41.6 | 17.7 | 29.3 | –
COc1cccc(Nc2ncc3c(n2)N(Cc2ccccc2)CC(=O)N3)c1 | 40.4 | 99.9 | 81.1 | 78.7 | –
COc1cc(Nc2ncc3c(n2)N(Cc2ccccc2)CC(=O)N3)cc(OC)c1OC | > 100 | 10.6 | 12.8 | 8.76 | –
O=c1[nH]cc(F)c(=O)[nH]1 [FLUOROURACIL] | 95.7 | 53.5 | 98.2 | 171 | –
O=C1CN(Cc2ccccc2)c2nc(NCCc3ccccc3)ncc2N1 | 7.75 | 22.4 | 10.7 | 6.37 | Activity [5]: 61.25%; Activity [6]: 16.5%; Activity [7]: 19.76%; Activity [8]: 10.8%; Activity [9]: Dose-dependent effect; Ratio IC50 [10]: 11; Activity [11]: 20.98%; Activity [12]: 72.7%; Activity [13]: 74.68%; Ratio IC50 [14]: 49; Activity [15]: 4.34%; Activity [16]: 18.98%; Ratio IC50 [17]: 8
CN1CC(=O)Nc2cnc(Nc3ccc(Cl)cc3)nc21 | 31.3 | > 100 | 91 | 36 | –
O=C1CN(Cc2ccccc2)c2nc(Nc3ccc(Cl)cc3)ncc2N1 | > 100 | > 100 | > 100 | > 100 | –
COc1cc(Nc2ncc3c(n2)N(C)CC(=O)N3)cc(OC)c1OC | 66.1 | 46.2 | 45.2 | 56.2 | –
CS(=O)(=O)N1CCC(Nc2ncc3c(n2)N(Cc2ccccc2)CC(=O)N3)CC1 | 97.4 | > 100 | > 100 | > 100 | –
